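Exposure lasted 48 hours, with cells grown in 96-well plates and compounds tested at five concentrations. GI50: concentration for 50% inhibition of growth.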 Activity calls are given as the source filed them. No stated cut-off is given here; in the data, active = GI50 up to about 1.1 µM and inactive = higher.
What was measured:
Test in all cases: NCI tumour cell line growth inhibition, 48 h
MDA-MB-435 = test system: MDA-MB-435
M14 = test system: M14
DU-145 = test system: DU-145
RXF 393 = test system: RXF 393
T47D = test system: T47D
786-0 = test system: 786-0
M19-MEL = test system: M19-MEL
LXFL 529 = test system: LXFL 529
RXF 631 = test system: RXF 631

Measured: GI50

CCCSc1ccc2[nH]c(N3C(=O)/C(=C/c4cc(OC)c(OC)c(OC)c4)N=C3c3ccccc3)cc2c1
inactive: MDA-MB-435 4.03 µM | M14 10.4 µM | DU-145 10.1 µM | RXF 393 7.73 µM | T47D 11 µM | 786-0 3.24 µM

COc1cccc(N/C(C)=C2/CCOC2=O)c1
inactive: MDA-MB-435 > 10 µM | M14 > 10 µM | DU-145 > 10 µM | RXF 393 > 10 µM | T47D > 10 µM

O=C(CCl)NC(Cc1ccc(F)cc1)C(=O)O (configuration not stated)
inactive: M19-MEL > 100 µM

Cc1sc(Cc2ccccc2)nc1-c1ccc(N)cc1
inactive: MDA-MB-435 17.7 µM | M14 20.6 µM

Cc1c(C#N)c2nnn(C)c(=O)n2c1-c1ccccc1
inactive: MDA-MB-435 > 100 µM | M14 > 100 µM | RXF 393 > 100 µM

O=C(CSc1nc2ccccc2c2ccccc12)c1ccccc1
inactive: MDA-MB-435 > 100 µM | M14 > 100 µM | DU-145 > 100 µM | RXF 393 > 100 µM | T47D > 100 µM | 786-0 > 100 µM

CC(C)OP(=O)(OC(C)C)/C(=N/Nc1ccc([N+](=O)[O-])cc1)NCCO
inactive: M14 > 100 µM | LXFL 529 38.4 µM | M19-MEL > 100 µM | 786-0 > 100 µM

O=c1ccc2ccc(S)cc2o1
inactive: MDA-MB-435 > 100 µM | M14 > 100 µM | DU-145 > 100 µM | RXF 393 > 100 µM | T47D > 100 µM | 786-0 > 100 µM

COc1cc(Nc2c3ccccc3nc3ccccc23)ccc1NS(C)(=O)=O
inactive: M14 3.14 µM | LXFL 529 4.8 µM | M19-MEL 5.93 µM

COc1cc(Nc2nc3cc(C(F)(F)F)ccc3n3cccc23)cc(OC)c1OC
inactive: MDA-MB-435 9.46 µM | M14 17.8 µM | DU-145 > 100 µM | RXF 393 3.93 µM | T47D 2.96 µM

CC(O)C(O)C(N)CC=O (configuration not stated)
inactive: RXF 393 > 500 µM | M19-MEL > 500 µM

C=CCN1C(N)=C(C(N)=O)S/C1=C1/SC(=S)N(c2ccc(C)cc2)C1=O
inactive: LXFL 529 > 100 µM | M19-MEL > 100 µM

Cc1c2ccnc(C(F)(F)F)c2cc2c1[nH]c1ccccc12
inactive: RXF 393 16.6 µM | M19-MEL > 125 µM

Cn1cc(C(=O)/C(Cl)=C(\Cl)C(=O)O)c2ccccc21
inactive: M14 > 100 µM | RXF 393 > 100 µM | M19-MEL > 100 µM | RXF 631 > 100 µM | 786-0 > 100 µM

CC(C)(C)CI
inactive: M14 25 µM | RXF 393 18.4 µM | LXFL 529 33.3 µM | M19-MEL 23 µM | RXF 631 32.3 µM
